We go through 36 compounds from patent US20050197350A1, “Novel quinoline, tetrahydroquinazoline, and pyrimidine derivatives and methods of treatment related to the use thereof” (TAISHO PHARMACEUTICAL CO., LTD., priority 2003, published 2005).

Like-named read-outs stand apart in the source and are kept apart here.

The test system of this assay is MCH receptors. Briefly: MCH receptor activity class (method not given).
Setting [1] is: class 1-3 by percent of control at 10^-7 M or IC50.
Where [2] appears, read: class by percent of control at 10^-7 M or IC50.
Where [3] appears, read: MCH receptor, class by percent of control at 10^-7 M or IC50.
The mark [4] stands for this setting: activity class 1-3: percent of control at 10^-7 M or IC50.
Setting [5] is: MCH receptor activity class 1-3 (percent of control at 10^-7 M or IC50).
[6] abbreviates: class by percent of control at 10^−7 M or IC50.

For the compound `CN(C)c1nc(N[C@H]2CC[C@@H](NC(=O)c3csc4ccccc34)CC2)nc2c1CCCC2` [compound 527], the class under setting [1] is reported as 3 (Class 3 The value of percent of control at 10^−7 M was more than 60% or the value of IC50 was more than 200 nM.).
Take `CC1=C(CC(=O)N[C@H]2CC[C@@H](Nc3cc(N(C)C)c4ccccc4n3)CC2)c2cc(F)ccc2/C1=C/c1ccc([S+](C)[O-])cc1` (relative stereo) [compound 743]: the class under setting [2] is 3 (Class 3 The value of percent of control at 10^−7 M was more than 60% or the value of IC50 was more than 200 nM.).
With `CN(C)c1nc(N[C@H]2CC[C@@H](NC(=S)Nc3cccc(C#N)c3)CC2)nc2c1CCCC2` [compound 1983], under setting [3], the class was 3 (Class 3 The value of percent of control at 10^−7 M was more than 60% or the value of IC50 was more than 200 nM.).
Turning to `Cc1cc(N(C)C)nc(N[C@H]2CC[C@@H](NC(=O)c3cccc(Cl)c3)CC2)n1` [Example 2567, 3-chloro-N-(cis-4-{[4-(dimethylamino)-6-methylpyrimidin-2-yl]amino}cyclohexyl)benzamide], the class is 1.
Turning to `Cc1noc(C)c1NC(=O)N[C@H]1CC[C@@H](Nc2nc3c(c(N(C)C)n2)CCCC3)CC1` [compound 1924], the class under setting [3] was 3 (Class 3 The value of percent of control at 10^−7 M was more than 60% or the value of IC50 was more than 200 nM.).
Take `Cc1cc(C)c(NC(=O)N[C@H]2CC[C@@H](Nc3nc4c(c(N(C)C)n3)CCCC4)CC2)c(C)c1` [compound 1667]: under setting [4], the class is 1 (Class 1: The value of percent of control at 10^−7 M was less than 40% or the value of IC50 was less than 50 nM.).
Regarding `CN(C)c1nc(N[C@H]2CC[C@@H](CNC(=O)Nc3c(F)cc(Br)cc3F)CC2)nc2c1CCCC2` [compound 2478], the class under setting [5] is 3 (Class 3 The value of percent of control at 10^−7 M was more than 60% or the value of IC50 was more than 200 nM.).
In the case of `CN(C)c1nc(N[C@H]2CC[C@@H](NC(=O)Nc3c(Cl)cccc3C(F)(F)F)CC2)nc2c1CCCC2` [compound 1673], the class under setting [4] is 3 (Class 3 The value of percent of control at 10^−7 M was more than 60% or the value of IC50 was more than 200 nM.).
On to `Cc1cccc(C(=O)N[C@H]2CC[C@@H](Nc3nc(C)cc(N(C)C)n3)CC2)c1` [compound 2983, N-(cis-4-{[4-(dimethylamino)-6-methylpyrimidin-2-yl]amino}cyclohexyl)-3-methylbenzamide], for which the class under setting [6] is 1 (Class 1: The value of percent of control at 10^−7 M was less than 40% or the value of IC50 was less than 50 nM.).
Take `CN(C)c1nc(N[C@H]2CC[C@@H](NC(=S)Nc3ccc(Br)cc3)CC2)nc2c1CCCC2` [compound 1737]: under setting [2], the class is on record as 3 (Class 3 The value of percent of control at 10^−7 M was more than 60% or the value of IC50 was more than 200 nM.).
For the compound `CN(C)c1nc(N[C@H]2CC[C@@H](NC(=O)C3CCCCC3)CC2)nc2c1CCCC2` [compound 533], the class under setting [1] was 3 (Class 3 The value of percent of control at 10^−7 M was more than 60% or the value of IC50 was more than 200 nM.).
In the case of `Cc1ccnc(SCC(=O)N[C@H]2CC[C@@H](Nc3cc(N(C)C)c4ccccc4n3)CC2)n1` [compound 696], the class under setting [2] was 3 (Class 3 The value of percent of control at 10^−7 M was more than 60% or the value of IC50 was more than 200 nM.).
Still for that read-out and setting: as for `CCNC(=O)N[C@H]1CC[C@@H](Nc2nc3c(c(N(C)C)n2)CCCC3)CC1` [compound 1825], the figure is 3 (Class 3 The value of percent of control at 10^−7 M was more than 60% or the value of IC50 was more than 200 nM.).
As for `CN(C)c1nc(N[C@H]2CC[C@@H](NC(=O)Nc3ccc(Cl)cc3C(F)(F)F)CC2)nc2c1CCCC2` [compound 1687], the class under setting [4] is reported as 3 (Class 3 The value of percent of control at 10^−7 M was more than 60% or the value of IC50 was more than 200 nM.).
On to `Cc1ccc(C(=O)NC[C@H]2CC[C@@H](Nc3cc(N(C)C)c4ccccc4n3)CC2)cc1` [compound 178], for which the class under setting [3] was 3 (Class 3 The value of percent of control at 10^−7 M was more than 60% or the value of IC50 was more than 200 nM.).
Consider `COc1cc(OC)c(NC(=S)N[C@H]2CC[C@@H](Nc3nccc(N(C)C)n3)CC2)cc1Cl` [compound 2342], for which, under setting [5], the class is given as 1 (Class 1: The value of percent of control at 10^−7 M was less than 40% or the value of IC50 was less than 50 nM.).
On the same count and under the same terms, as for `CN(C)c1cc(N[C@H]2CC[C@@H](CNC(=O)Nc3ccc(C#N)cc3)CC2)nc2ccccc12` [compound 2388], the figure is 3 (Class 3 The value of percent of control at 10^−7 M was more than 60% or the value of IC50 was more than 200 nM.).
Consider `Cc1ccc(Cl)c(C(=O)NC[C@H]2CC[C@@H](Nc3nc4c(c(N(C)C)n3)CCCC4)CC2)c1F` [compound 670], for which the class under setting [2] is 3 (Class 3 The value of percent of control at 10^−7 M was more than 60% or the value of IC50 was more than 200 nM.).
As to `Cc1nc(N[C@H]2CC[C@@H](NC(=O)c3ccc(O)nc3)CC2)nc(N(C)C)c1C` [compound 2827], the class under setting [6] was 3 (Class 3 The value of percent of control at 10^−7 M was more than 60% or the value of IC50 was more than 200 nM.).
Turning to `CN(C)c1nc(N[C@H]2CC[C@@H](NC(=O)OCCOCc3ccccc3)CC2)nc2c1CCCC2` [compound 1579], the class under setting [4] was 3 (Class 3 The value of percent of control at 10^−7 M was more than 60% or the value of IC50 was more than 200 nM.).
Regarding `CN(C)c1nc(N[C@H]2CC[C@@H](NC(=O)c3ccc(F)c(Cl)c3)CC2)nc2c1CCCC2` [compound 509], under setting [1], the class is on record as 1 (Class 1: The value of percent of control at 10^−7 M was less than 40% or the value of IC50 was less than 50 nM.).
On to `Cc1cc(N(C)C)nc(N[C@H]2CC[C@@H](CNC(=O)c3cccc(OC(F)(F)F)c3)CC2)n1` [compound 2759], for which the class under setting [6] is given as 3 (Class 3 The value of percent of control at 10^−7 M was more than 60% or the value of IC50 was more than 200 nM.).
In the case of `CN(C)c1nc(N[C@H]2CC[C@@H](NC(=S)Nc3ccc(F)c(F)c3F)CC2)nc2c1CCCC2` [compound 1970], the class under setting [3] is reported as 3 (Class 3 The value of percent of control at 10^−7 M was more than 60% or the value of IC50 was more than 200 nM.).
With `CCOc1ccccc1NC(=O)N[C@H]1CC[C@@H](Nc2nccc(N(C)C)n2)CC1` [compound 2232], the class under setting [2] is 3 (Class 3 The value of percent of control at 10^−7 M was more than 60% or the value of IC50 was more than 200 nM.).
For `CCSC(C(=O)N[C@H]1CC[C@@H](Nc2nccc(N(C)C)n2)CC1)(c1ccccc1)c1ccccc1` [compound 874, N-(cis-4-{[4-(dimethylamino)pyrimidin-2-yl]amino}cyclohexyl)-2-(ethylthio)-2,2-diphenylacetamide], the class under setting [2] is reported as 1 (Class 1: The value of percent of control at 10^−7 M was less than 40% or the value of IC50 was less than 50 nM.).
In the case of “N-(3,4-dimethoxyphenyl)-N′-(cis-4-{[4-(dimethylamino)-5,6-dimethylpyrimidin-2-yl]amino}cyclohexyl)urea [compound 2867]”, under setting [6], the class is recorded as 1 (Class 1: The value of percent of control at 10^−7 M was less than 40% or the value of IC50 was less than 50 nM.).
Turning to `CCCN(CCC)S(=O)(=O)c1ccc(C(=O)N[C@H]2CC[C@@H](Nc3nc4c(c(N(C)C)n3)CCCC4)CC2)cc1` [compound 574], the class under setting [1] is given as 3 (Class 3 The value of percent of control at 10^−7 M was more than 60% or the value of IC50 was more than 200 nM.).
In the case of `COc1ccc([C@H](C)NC(=O)[C@H]2CC[C@@H](Nc3ncc(C)c(N(C)C)n3)CC2)cc1` [compound 2777, cis-4-{[4-(dimethylamino)-5-methylpyrimidin-2-yl]amino}-N-[(1S)-1-(4-methoxyphenyl)ethyl]cyclohexanecarboxamide], the class under setting [6] is 1 (Class 1: The value of percent of control at 10^−7 M was less than 40% or the value of IC50 was less than 50 nM.).
As to `CN(C)c1nc(N[C@H]2CC[C@@H](NC(=S)Nc3cc(C(F)(F)F)ccc3F)CC2)nc2c1CCCC2` [compound 1977], the class under setting [3] was 3 (Class 3 The value of percent of control at 10^−7 M was more than 60% or the value of IC50 was more than 200 nM.).
For `COc1cccc(N(C)C(=O)N[C@H]2CC[C@@H](Nc3ncc(C)c(N(C)C)n3)CC2)c1` [compound 3028, N′-(cis-4-{[4-(dimethylamino)-5-methylpyrimidin-2-yl]amino}cyclohexyl)-N-(3-methoxyphenyl)-N-methylurea], under setting [6], the class is 1 (Class 1: The value of percent of control at 10^−7 M was less than 40% or the value of IC50 was less than 50 nM.).
Turning to `CN(C)c1cc(N[C@H]2CC[C@@H](NC(=O)c3ccnc4ccccc34)CC2)nc2ccccc12` [compound 785], the class under setting [2] is listed as 3 (Class 3 The value of percent of control at 10^−7 M was more than 60% or the value of IC50 was more than 200 nM.).
In the case of `CN(C)c1nc(N[C@H]2CC[C@@H](CNC(=O)C(c3ccc(Cl)cc3)c3ccc(Cl)cc3)CC2)nc2c1CCCC2` [compound 1073], under “activity class per percent of control at 10^-7 M or IC50”, the class was 3 (Class 3 The value of percent of control at 10^−7 M was more than 60% or the value of IC50 was more than 200 nM.).
With `CCCCOC(=O)c1ccccc1NC(=O)N[C@H]1CC[C@@H](Nc2nc3c(c(N(C)C)n2)CCCC3)CC1` [compound 1910], the class under setting [3] was 3 (Class 3 The value of percent of control at 10^−7 M was more than 60% or the value of IC50 was more than 200 nM.).
As to `CN(C)c1nc(N[C@H]2CC[C@@H](NC(=O)c3cccc([N+](=O)[O-])c3)CC2)nc2c1CCCC2` [compound 480], the class under setting [1] is reported as 1 (Class 1: The value of percent of control at 10^−7 M was less than 40% or the value of IC50 was less than 50 nM.).
Regarding `Cc1cc(N(C)C)nc(N[C@H]2CC[C@@H](NC(=O)c3ccc(OC(F)(F)F)cc3)CC2)n1` [Example 2569, N-(cis-4-{[4-(dimethylamino)-6-methylpyrimidin-2-yl]amino}cyclohexyl)-4-(trifluoromethoxy)benzamide], the class was 3.
As for `C/C(=C\c1ccccc1)C(=O)N[C@H]1CC[C@@H](Nc2nc3c(c(N(C)C)n2)CCCC3)CC1` [compound 523], under setting [1], the class is 3 (Class 3 The value of percent of control at 10^−7 M was more than 60% or the value of IC50 was more than 200 nM.).
